{"source": "paper PMC7238232", "about": "“Acamprosate Is a Substrate of the Human Organic Anion Transporter (OAT) 1 without OAT3 Inhibitory Properties: Implications for Renal Acamprosate Secretion and Drug–Drug Interactions” (Pharmaceutics, 2020)", "key": {"OAT1": {"molecular_target": "T1, OAT1 (Homo sapiens, UniProt Q4U2R8)", "T1 sequence (Q4U2R8 1-563)": "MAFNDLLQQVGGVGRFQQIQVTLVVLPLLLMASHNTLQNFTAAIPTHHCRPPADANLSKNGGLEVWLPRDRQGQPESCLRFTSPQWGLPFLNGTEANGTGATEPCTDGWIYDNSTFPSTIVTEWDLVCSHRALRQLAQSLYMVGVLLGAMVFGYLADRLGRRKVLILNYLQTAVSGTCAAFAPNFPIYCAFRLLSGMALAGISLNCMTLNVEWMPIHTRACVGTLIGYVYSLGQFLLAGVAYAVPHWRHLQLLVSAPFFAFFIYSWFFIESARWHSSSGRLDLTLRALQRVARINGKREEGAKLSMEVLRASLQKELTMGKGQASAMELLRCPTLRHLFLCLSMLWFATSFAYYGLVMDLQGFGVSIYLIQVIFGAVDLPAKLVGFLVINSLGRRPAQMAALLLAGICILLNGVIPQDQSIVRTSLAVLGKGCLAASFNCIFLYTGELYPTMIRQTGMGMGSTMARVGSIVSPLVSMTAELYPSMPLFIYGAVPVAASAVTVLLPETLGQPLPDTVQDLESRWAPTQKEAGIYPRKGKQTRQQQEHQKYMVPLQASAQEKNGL", "assay": "[14C]-PAH uptake and its inhibition in HEK293-Flp-In OAT1 cells", "method": "(§1) All uptake experiments were performed on 24- or 96-well plates. Before the experiment initiation, the cells were incubated with either 500 or 200 µL∙well^−1 prewarmed buffer for 10 min at 37 °C in a microplate incubator (VWR International AB, Stockholm, Sweden), without shaking. […] The experiment was stopped by adding 200 µL∙well^−1 of ice-cold buffer and subsequent rinse three times with the same amount of buffer. In Lab. 1 the sample analysis of the OAT1/OAT3/mock studies consisted in removing the rinsing buffer and lysing the cells with 70 µL 1M NaOH, following by incubation for 60 min at 37 °C and 100 rpm. A total of 50 µL of cell lysate from each well was transferred to 96-well Luma plates bottom coated with dry scintillant. Then, 2∙20 µL of each donor and three 50 µL blank samples were applied on the same plate. The dry plates were covered with transparent seals and analyzed using a TopCount NXT Microplate Scintillation and Luminescence Counter (Perkin Elmer, Waltham, MA, USA). The remaining 20 µL cell lysate was neutralized with 20 µL 1M HCl∙well^−1, samples were mixed thoroughly and the total protein content in all the wells was measured using a BCA protein assay kit, microplate method, and a Tecan Safire II fluorometer (Tecan Austria GmbH, Grödig, Austria). For the experiments in Lab. 2, the cells were lysed by adding 200 µL 0.1% Triton X-100 and incubated for 5 min at 37 °C and 100 rpm. […] The total protein content was measured by using a BCA protein assay kit and a FLUOStar Omega fluorescence microplate reader (BMG Labtech, Ortenberg, Germany). The protein assay for the OAT3 and mock cell lines was performed in four independent wells of each cell line, seeded and treated in the same manner as the cells used in the uptake assay. For all the OAT1, OAT3, and mock isotope uptake studies, the radiolabelled tracer accumulation (pmol) in each well was calculated by first determining the activity of the isotope (DPM∙pmol^−1) from the radioactivity (DPM) of the donor sample divided by the theoretical isotope concentration (pmol), then dividing the total radioactivity in the well (DPM) to the specific activity of the isotope (DPM∙pmol^−1).\n(§2) A range of preincubation solutions was prepared at the same concentrations of acamprosate applied in the inhibition assays. Acamprosate was dissolved in HBSS buffered with 10 mM HEPES and the pH was adjusted to 7.40 ± 0.01. The preincubation solutions were prewarmed to 37 °C and applied to the corresponding cells after removing the cell growth medium. The preincubation was done for 3 h, at 37 °C, without shaking. After the preincubation, the solutions were removed, and the inhibition experiment was performed as described in the Section 2.6.\nThe obtained intracellular amounts (pmol) were normalized to the assay time (min) and cell surface area (cm^2) or protein amount (mg protein) to obtain a term hereafter referred to as uptake rate. The uptake rate of acamprosate as a function of concentration was fitted to a Michaelis–Menten type equation which includes a saturable and a non-saturable uptake component, (1) V=Vmax · [S]/Km +[S]+P · [S] where V is the substrate uptake rate; Vmax is the maximal uptake rate; P is a constant related to non-saturable apparent uptake, i.e., factors such as passive diffusion, unspecific binding and residual compound present after washing steps, and [S] is the substrate concentration (µM). […] Assuming competitive interaction, equilibrium dissociation constants, Ki, were calculated from the IC50 value for each substrate/inhibitor pair, at substrate Km, using the Cheng–Prusoff equation [24]."}, "OAT3": {"molecular_target": "T2, OAT3 (Homo sapiens, UniProt Q8TCC7)", "T2 sequence (Q8TCC7 1-542)": "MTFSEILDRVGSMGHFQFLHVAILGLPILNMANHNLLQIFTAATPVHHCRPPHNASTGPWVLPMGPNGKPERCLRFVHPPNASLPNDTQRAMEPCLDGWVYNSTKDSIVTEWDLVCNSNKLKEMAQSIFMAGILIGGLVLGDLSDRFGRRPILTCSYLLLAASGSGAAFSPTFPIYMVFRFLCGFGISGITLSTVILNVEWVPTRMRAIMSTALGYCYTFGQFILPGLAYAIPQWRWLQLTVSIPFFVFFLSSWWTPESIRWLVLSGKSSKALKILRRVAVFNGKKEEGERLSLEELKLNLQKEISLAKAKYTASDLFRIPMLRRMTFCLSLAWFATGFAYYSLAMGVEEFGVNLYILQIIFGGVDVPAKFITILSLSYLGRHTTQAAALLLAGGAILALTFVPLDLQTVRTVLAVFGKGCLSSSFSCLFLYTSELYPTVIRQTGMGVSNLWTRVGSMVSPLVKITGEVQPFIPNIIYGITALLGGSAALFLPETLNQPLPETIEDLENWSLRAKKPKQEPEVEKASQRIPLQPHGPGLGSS", "assay": "[3H]-E3S uptake and its inhibition in HEK293-Flp-In OAT3 cells", "assay_type": "cell-based", "method": "as §1, §2\nThe obtained intracellular amounts (pmol) were normalized to the assay time (min) and cell surface area (cm^2) or protein amount (mg protein) to obtain a term hereafter referred to as uptake rate. […] Assuming competitive interaction, equilibrium dissociation constants, Ki, were calculated from the IC50 value for each substrate/inhibitor pair, at substrate Km, using the Cheng–Prusoff equation [24]."}, "[1]": {"settings": "no reference given; cited from earlier work"}, "PAT1": {"system": "PAT1", "settings": "Caco-2 cells, preliminary data; cited from earlier work"}, "EAAT1": {"system": "EAAT1", "settings": "Caco-2 cells, preliminary data; cited from earlier work"}}, "note": "Entries after “also recorded” stand apart in the source; their conditions may differ. Where two headings read alike, the source gives them in different places."}
{"smiles": "CC(=O)NCCCS(=O)(=O)O", "note": "[acamprosate, acetylhomotaurinate]", "values": [{"measurement": "effect on uptake of [14C]-PAH in OAT1 expressing cells", "setting": "OAT1; 9.5 µM [14C]-PAH, 200 µM PAH, 300 µM probenecid, 1000 and 10,000 µM acamprosate, Lab. 1", "value": "significantly decreased"}, {"measurement": "IC50", "setting": "OAT1; IC50, 3 h, inhibition of PAH uptake via OAT1, 9.5 µM [14C]-PAH, after 3 h preincubation with inhibitor, Lab. 2", "value": 582, "unit": "µM"}, {"measurement": "IC50", "setting": "OAT1; IC50, inhibition of PAH uptake via OAT1, 9.5 µM [14C]-PAH, 3 min, applied concomitantly, Lab. 2", "value": 638, "unit": "µM"}, {"measurement": "IC50", "setting": "OAT1; IC50, inhibition of PAH uptake via OAT1, 9.5 µM [14C]-PAH, 5 min, Lab. 1", "value": 1390, "unit": "µM"}, {"measurement": "Ki", "setting": "OAT1; Ki of acamprosate on PAH uptake, fit to competitive kinetics (Equation 4), Lab. 2", "value": "1230 ± 341", "unit": "µM"}, {"measurement": "Ki", "setting": "OAT1; Ki, inhibition of PAH uptake via OAT1, 3 h, Cheng-Prusoff, after 3 h preincubation, Lab. 2", "value": 287, "unit": "µM"}, {"measurement": "Ki", "setting": "OAT1; Ki, inhibition of PAH uptake via OAT1, Cheng-Prusoff from IC50, competitive inhibition assumed, Lab. 1", "value": 1140, "unit": "µM"}, {"measurement": "Ki", "setting": "OAT1; Ki, inhibition of PAH uptake via OAT1, Cheng-Prusoff, applied concomitantly, Lab. 2", "value": 315, "unit": "µM"}, {"measurement": "effect of 3 h preincubation on inhibition of [14C]-PAH uptake", "setting": "OAT1; OAT1 expressing cells, 0–10,000 µM acamprosate, 200 µM PAH, 300 µM probenecid, Lab. 2", "value": "no apparent effect"}, {"measurement": "Ki", "setting": "OAT1; OAT1 inhibiting Ki-value", "value": 638, "unit": "µM"}, {"measurement": "mechanism of inhibition of OAT1-mediated PAH transport", "setting": "OAT1; PAH uptake with 0, 625, 1250 or 2500 µM acamprosate, Lab. 2", "value": "competitive"}, {"measurement": "Ki", "setting": "OAT1; human, Ki values, inhibition of OAT1-mediated transport of PAH, range over the two laboratories", "value": "582 to 1230", "unit": "µM"}, {"measurement": "IC50", "setting": "OAT1; human, hek293-flp-in oat1 cells, IC50, p-Aminohippuric Acid (PAH), input for DDI index, Table A1, for acamprosate interval of obtained values", "value": "287 to 1230", "unit": "µM"}, {"measurement": "IC50", "setting": "OAT1; log IC50 ± log S.E.M., 3 h, inhibition of PAH uptake via OAT1, after 3 h preincubation, Lab. 2, log of IC50 in µM", "value": 631, "unit": "µM"}, {"measurement": "IC50", "setting": "OAT1; log IC50 ± log S.E.M., inhibition of PAH uptake via OAT1, 9.5 µM [14C]-PAH, 5 min, Lab. 1, log of IC50 in µM", "value": 1260, "unit": "µM"}, {"measurement": "IC50", "setting": "OAT1; log IC50 ± log S.E.M., inhibition of PAH uptake via OAT1, 3 min, applied concomitantly, Lab. 2, log of IC50 in µM", "value": 631, "unit": "µM"}, {"measurement": "IC50", "setting": "OAT3", "value": "> 10000", "unit": "µM"}, {"measurement": "effect on uptake of [3H]-E3S in OAT3 expressing cells", "setting": "OAT3; 0.02 µM [3H]-E3S, 200 µM E3S, 300 µM probenecid, 1000 or 10,000 µM acamprosate, Lab. 2", "value": "did not affect"}, {"measurement": "inhibition of [3H]-E3S uptake via OAT3, with and without 3 h preincubation", "setting": "OAT3; all applied acamprosate concentrations, up to 10 mM", "value": "lack of inhibitory effect; also recorded: did not inhibit"}, {"measurement": "IC50", "setting": "OAT3; read-out: IC50, Estrone-3-Sulfate, input for DDI index, Table A1", "value": "> 10000", "unit": "µM"}, {"measurement": "logP", "setting": "[1]", "value": "−3.57"}, {"measurement": "pKa", "setting": "[1]", "value": 1.83}, {"measurement": "inhibition of substrate transport via PAT1", "setting": "PAT1", "value": "did not inhibit"}, {"measurement": "inhibition of substrate transport via EAAT1", "setting": "EAAT1", "value": "did not inhibit"}]}
